Measured values published in patent publication US20240082398A1, “METHODS OF PREPARING AND EXPANDING TYPE I INNATE LYMPHOID CELLS AND THERAPEUTIC USES THEREOF” (City of Hope, priority 2021, published 2024).
Entries after “also recorded” stand apart in the source; their conditions may differ.

Legend:
mouse LSCs = experiment: RNA-seq of LSCs after ILC1 co-culture or IFN-γ treatment; type: cell-based; conditions: vs untreated LSCs
Method: For mouse ILC1 RNA-sequencing, mouse ILC1s were sorted from the liver of normal mice or mice with AML using BD FACSAria™ Fusion. […] Total RNA was isolated from ILC1s or LSCs using a miRNeasy mini kit (QIAGEN). PolyA RNA-seq was performed in the Integrative Genomics Core of City of Hope National Medical Center. SMART-Seq® Ultra Low Input RNA Kit for Sequencing-v4 (Takara Bio) was used for getting double-strand cDNA from each sample with 2 ng of input total RNA. The resulting cDNA was sheared using a Covaris LE220 sonicator. The sheared DNA was used for to prepare a sequencing library, using a KAPA HyperPrep Kit. The final libraries were quantified using the Qubit Assay Kit (Thermo Fisher Scientific) and Bioanalyzer (Agilent). Sequencing was performed using the single-read mode of 51 cycles of read1 and 7 cycles of index read with V4 reagents on a Hiseq 2500 system (Illumina). Real-time analysis (RTA) 2.2.38 software was used to process the image analysis and base calling.
2,000 mouse LSCs were co-cultured with 1,000 ILC1s or treated with 1 ng/ml IFN-γ for 3 days, and then the LSCs were sorted using BD FACSAria Fusion. Total RNA of LSCs were isolated using miRNeasy mini kit (QIAGEN). SMART-Seq® Ultra Low Input RNA Kit for Sequencing-v4 was used for generating amplified double strand cDNA from each sample with 2 ng of input total RNA according to the manufacturer's protocol. The resulting double-stranded cDNA sheared with Covaris LE220 with the setting of DNA fragment size of 200 bp peak. The sheared DNA was used for sequencing library preparation by using KAPA HyperPrep Kits. The final libraries were quantified with qubit and bioanalyzer. The sequencing was performed with the single read mode of 51 cycles of read1 and 7 cycles of index read with V4 reagents on Hiseq2500. Real-time analysis (RTA) 2.2.38 software was used to process the image analysis and base calling.
Prism software v.8 (GraphPad, CA, USA) was used to perform statistical analysis. Two group comparisons were performed with a two-tailed Student's t-test; multiple group comparisons were performed with a one-way ANOVA test with a multiple comparisons option. For Kaplan-Meier survival curve analysis, the comparisons were performed using a log-rank (Mantel-Cox) test. For continuous endpoints, Student's t test was used to compare two independent conditions, and one-way ANOVA models were used to compare three or more independent conditions. For repeated measures over time, linear mixed models were used to account for the variance and covariance structure. Mouse survival was estimated by the Kaplan-Meier method and compared by log-rank tests. All tests were two-sided. P values were adjusted for multiple comparisons by Holm's procedure. For RNA-seq analysis, sequencing reads were trimmed from sequencing adapters using Trimmomatic^74 and polyA tails using FASTPT^75, and then mapped back to the mouse genome (mm10) using STAR (v. 020201)^76. The gene-level count table was created by HTSeq (v.0.6.0)^77 and normalized by the TMM^78 method. General linear models based on negative binomial distributions (R package “EdgeR”) were used to compare gene expression levels between two specific cell types. […] Pathway and gene set enrichment analyses were performed using the GSEA^79,80 program, which runs the GSEAPreranked algorithm on a ranked list of genes. Data are presented as mean±SD. Prism software v.8 (GraphPad, CA, USA) and SAS v.9.4 (SAS Institute. NC, USA) were used to perform statistical analyses. The p-values are represented as: *<0.05, **<0.01, ***<0.001, and ****<0.0001

[1] = tested on: mouse LSCs (Lin^−Sca-1^+c-Kit^+); experiment: LSCs and ILC1s in vitro co-culture assay (LSC apoptosis), mouse; type: cell-based; conditions: recombinant murine cytokine instead of ILC1s, indicated doses, 3-4 days
Method: A total of 2,000 LSCs from AML patients labeled with CTV were co-cultured with different numbers of human ILC1s supplemented with human IL-12 (10 ng/ml) and IL-15 (100 ng/ml). After 3 days of co-culture, cells were harvested and analyzed by flow cytometry. 7-AAD was used to identify dead cells. For mouse LSCs co-culture assay, 2,000 LSCs from Mll^PTD/WT/Flt3^ITD/ITD mice labeled with CTV were co-cultured with different numbers of mouse ILC1s supplemented with mouse IL-12 (10 ng/ml) and IL-15 (100 ng/ml). After 3 days of co-culture, cells were harvested and analyzed by flow cytometry. 7-AAD was used to identify the dead cells. For the co-culture of LSCs and ILC1s using the transwell co-culture system, 2,000 human or mouse LSCs were seeded in the lower chamber while different numbers of human or mouse ILC1s were seeded in the upper chamber. After 3 days, cells were harvested and analyzed by flow cytometry. 7-AAD was used to identify the dead cells. For co-culture assay with cytokines and antibodies, 2,000 human or mouse LSCs were co-cultured with different doses of human or mouse TNF-α, IFN-γ, anti-TNF-α (10 μg/ml) Ab, or anti-IFN-γ Ab (10 μg/ml). Three days after the co-culture, cells were harvested and analyzed by flow cytometry. 7-AAD was used to identify the dead cells.
For human LSC co-culture assays, LSCs from patients with AML were labeled with […] CTV and co-cultured in the presence of human IL-12 (10 ng/ml) and IL-15 (100 ng/ml) with various numbers of ILC1s isolated from peripheral blood of healthy donors or patients with AML. […] For all co-culture assays, cells were harvested after 3 days and analyzed using flow cytometry. […]
ILC1s were co-cultured with LSCs at a ratio of 1:1 or 1:2 for 6 h. […] Plates were then shaken at 300 rpm for 1 min, incubated for 60 min at room temperature, and then read on a luminometer (Promega, Glomax). Background luminescence was determined with 100 μl of culture medium without cells and subtracted before fold changes were calculated.

[2] = tested on: LS^−K^+ leukemia progenitor cells; experiment: Differentiation of sorted leukemia progenitor cells into myeloid blasts; type: cell-based, mouse; conditions: treated 5 days, among the groups
Method: The process of LSC differentiation into AML blasts includes transitions from LSCs to LS^−K^+ leukemia progenitor cells, and from LS^−K^+ leukemia progenitor cells to AML blasts. To investigate which part of the process was affected by ILC1 and IFN-γ, LS^−K^+ leukemia progenitor cells were sorted from Mll^PTD/WT/Flt3^ITD/ITD AML mice, then the LS^−K^+ leukemia progenitor cells were treated with WT ILC1, ILC1s, or recombinant IFN-γ for 5 days. […] Thus, ILC1s block LSC differentiation into AML blasts, likely via a process involving by IFN-γ, during the transition from LSCs into LS^−K^+ leukemia progenitor cells, upstream of progenitor cell differentiation into AML blasts (FIG. 9D).
LSCs transition into LS^−K^+ leukemia progenitor cells before becoming AML blasts.

recombinant murine IFN-γ: animal-free recombinant murine IFN-γ cytokine
E2F targets, G2M checkpoints, MYC targets and mitotic spindle pathways in LSCs (GSEA) (mouse LSCs): significant suppression; also recorded: significantly suppressing
JAK-STAT and PI3K-AKT signaling pathways in LSCs (mouse LSCs): activation of the JAK-STAT and PI3K-AKT signaling pathways
apoptotic pathways in LSCs (GSEA) (mouse LSCs): activated apoptotic pathways
expression of Akt3, Jak2, Stat1/2, Irf1/2/7/8/9 and Socs1 in LSCs (mouse LSCs): increased expression
expression of genes associated with lymphoid differentiation (Gimap4, Gpb4, Irf8, Irf1) (mouse LSCs): increased expression
expression of genes associated with myeloid differentiation (S100a8/S100a9, Chil3, Serpinb1a, Slc28a2) (mouse LSCs): reduced their expression
LSC apoptosis on treatment with recombinant cytokine [1]: We observed LSC apoptosis with IFN-γ
LSC apoptosis on treatment with recombinant cytokine ([1]; listed as IFN-γ): induces apoptosis of LSCs
LSC apoptosis on treatment with recombinant cytokine ([1]; listed as Recombinant murine IFN-γ): induced LSC apoptosis
percentage of Mac-1^+ and Gr-1^+ cells from LS^−K^+ leukemia progenitor cells [2]: do not affect the differentiation of leukemia progenitor cells into myeloid blasts
percentage of Mac-1^+ and Gr-1^+ cells from LS^−K^+ leukemia progenitor cells ([2]; listed as recombinant IFN-γ): no statistical difference; also recorded: remained constant
